For 22 molecules, IC50 results are on record in US9399623B2, “Quinoline derivatives and their use in neurodegenerative diseases” (Merck Patent GmbH, priority 2014, dated 2016).

The structures appear in SMILES notation.

Assay [1] concerns the target T1, P2X7 (Homo sapiens, UniProt Q99572).
T1 sequence (Q99572 1-595): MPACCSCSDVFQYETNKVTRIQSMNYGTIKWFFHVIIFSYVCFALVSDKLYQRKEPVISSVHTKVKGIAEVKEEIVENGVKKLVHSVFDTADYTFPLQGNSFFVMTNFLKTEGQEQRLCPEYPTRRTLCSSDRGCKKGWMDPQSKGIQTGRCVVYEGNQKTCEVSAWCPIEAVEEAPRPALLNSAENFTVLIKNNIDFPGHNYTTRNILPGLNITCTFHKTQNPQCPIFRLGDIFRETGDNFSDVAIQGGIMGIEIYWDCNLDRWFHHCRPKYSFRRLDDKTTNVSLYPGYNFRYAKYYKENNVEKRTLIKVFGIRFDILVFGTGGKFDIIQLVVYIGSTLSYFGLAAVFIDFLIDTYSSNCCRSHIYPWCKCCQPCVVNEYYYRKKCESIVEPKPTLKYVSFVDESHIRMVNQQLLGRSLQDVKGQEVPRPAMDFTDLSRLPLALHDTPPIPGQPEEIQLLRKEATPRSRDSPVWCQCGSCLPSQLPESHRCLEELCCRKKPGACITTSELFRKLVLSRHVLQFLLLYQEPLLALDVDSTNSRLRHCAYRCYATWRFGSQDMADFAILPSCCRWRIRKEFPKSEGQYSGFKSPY
Kind of assay: Pore permeation assay (YO PRO dye uptake, BzATP-induced). Format: cell-based. On the set-up: expressed in transfected cells; host or cells: HEK293. To be noted: HEK293 transfected with human P2X7 receptor; YO PRO dye 1 uM, BzATP 10 uM; read-out: hP2X7 IC50. How it is done: Agonist-induced pore formation was determined by measuring cellular uptake of YO PRO fluorescence dye in HEK293 transfected with human P2X7 receptor. A HEK293 cell over expressing human P2X7 was harvested using HQTase reagent to detach the cells from T75 cm flask. The harvested cells are centrifuged @ 1200 rpm for 5 min at room temperature. The viability of cells was determined by Trypan blue dye and the cells are plated @ 10,000 cell/well in 50 ul volume in a 384 W BD Poly lysine coated plate and incubated overnight at 37 C. After overnight incubation, the culture medium was replaced with 35 ul/well assay buffer (5 mM KCl, 0.1 mM CaCl2, 5 mM Glucose, 10 mM HEPES buffer pH7.4 containing 125 mM NaCl. The serial dilution of compounds was performed using Bravo liquid handling instrument and the compounds were added using Bravo to the cell assay plate starting at 2.5 uM with three dilutions for 10 points. The positive control inhibitor compound was added to column 23. The plate was shaken slowly on a plate shaker for 10 seconds. The cells were incubated with the compound for 20 minutes at room temperature. After the incubation period, YO PRO dye (1 uM) along with BzATP (10 uM) were added to cells at 10 ul/well. The plate was centrifuged at 1000 rpm for 5 seconds and incubated at room temperature for 30 minutes. The uptake of YO PRO dye into the cells was measured using Envision Fluorescence plate reader instrument (Perkin Elmer).

The target of assay [2] is T1, P2X7. Kind of assay: IL-1β release assay in THP-1 cells (sandwich ELISA). The settings on record: PMA, LPS primed, stimulated with 0.8 mM BzATP, mature IL-1β release, read-out: hTHP-1/IL-ib IC50. It is filed as cell-based. On the set-up: release of mature IL-1β in the culture medium of THP-1 cells; endogenous in cells; host or cells: THP-1 cells (PMA-differentiated, LPS-primed). How it is done: The activation of P2X7 by ATP leads to a fast transient activation of cells resulting in influx of Ca^2+ followed by conversion of pro-IL-1β to active IL-1β. The functional activity of P2X7 compounds was measured by the release of mature IL-1β in the culture medium of THP-1 cells, detected by sandwich ELISA. Cells were maintained in complete growth medium (RPMI 1640+10% HI-FCS+2 mM L-glutamine+1×PS). […] THP-1 cells were harvested from the flask in 50 ml by centrifugation for 3 min at 100 g. The cells were resuspended to 2×10^5 cells/ml in medium supplemented with 0.5 μM PMA and incubated. The cells were washed and resuspended to 1.5×10^5 cells/ml in medium complemented with 10 ng/ml LPS, and the cells were primed for 4 h at 37° C., 5% CO2. After addition of 20 μL of prediluted test compounds, blank, standard and control reagents, cells were incubated for a further 20 min at 37° C. and stimulated with 0.8 mM BzATP for 30 minutes. The cells were centrifuged, supernatant was collected and the presence of mature IL-1β was detected using Dual human IL-1b kit following manufacturer's instruction. The tetrahydrobenzodiazepine analogs effectively modulated the activity of P2X7 in the cells as measured by the levels of pro-inflammatory cytokine IL-1β, which is released by the activation of P2X7 receptor.

For `CN(C)C1CCN(c2ccc3c(C(=O)NCC4(O)CCC(F)(F)CC4)c(Cl)ccc3n2)C1` (centres unmarked) [Compound 28, 6-Chloro-2-(3-dimethylamino-pyrrolidin-1-yl)-quinoline-5-carboxylic acid (4,4-difluoro-1-hydroxy-cyclohexylmethyl)-amide], the IC50 at P2X7 [1] and on P2X7 [2] was 10 to 100 nM throughout.
For `C[C@@H]1CCC[C@](O)(CNC(=O)c2c(Cl)ccc3nc(N4CCC(N5CCCC5)C4)ccc23)C1` (stereo partly drawn) [Compound 13, 6-Chloro-2-(3-pyrrolidinyl-pyrrolidin-1-yl)-quinoline-5-carboxylic acid ((1R,3R)-1-hydroxy-3-methyl-cyclohexylmethyl)-amide], the IC50 on P2X7 [1] and on P2X7 [2] was less than 10 nM in each case.
`O=C(NCC1CCC(F)(F)CC1)c1c(Cl)ccc2nc(C#CCO)ccc12` [Compound 19, 6-Chloro-2-(3-hydroxy-prop-1-ynyl)-quinoline-5-carboxylic acid (4,4-difluoro-cyclo hexylmethyl)-amide]: the IC50 at P2X7 [1] is less than 10 nM; on P2X7 [2], 10 to 100 nM.
For `COCCCOc1ccc2c(C(=O)NCC3CCC(F)(F)CC3)c(Cl)ccc2n1` [Compound 69, 6-Chloro-2-(3-methoxy-propoxy)-quinoline-5-carboxylic acid (4,4-difluoro-cyclohexylmethyl)-amide], the IC50 fell in the range of 10 to 100 nM on P2X7 [1] and 101 to 500 nM at P2X7 [2].
On the same counts, the results for `O=C(NCC1(O)CCCC(F)(F)C1)c1c(Cl)ccc2nc(N3CC[C@H](F)C3)ccc12` (stereo partly drawn) [Compound 36, 6-Chloro-2-((S)-3-fluoropyrrolidin-1-yl)-quinoline-5-carboxylic acid (3,3-difluoro-1-hydroxycyclohexylmethyl)-amide] are 10 to 100 nM and 10 to 100 nM.
Taken in the same sequence, the figures for `O=C(NCC1CCCC(F)(F)C1)c1c(Cl)ccc2nc(N3CCC(N4CCCC4)C3)ccc12` (centres unmarked) [Compound 34, 6-Chloro-2-(3-pyrrolidinyl-pyrrolidin-1-yl)-quinoline-5-carboxylic acid (3,3-difluoro-cyclohexylmethyl)-amide] were 10 to 100 nM and 10 to 100 nM.
Regarding `O=C(NCC1CCC(F)(F)CC1)c1c(Cl)ccc2nc(N3CCC3)ccc12` [Compound 49, 2-(azetidin-1-yl)-6-Chloro-quinoline-5-carboxylic acid (4,4-difluoro-cyclohexylmethyl)-amide], the IC50 on P2X7 [1] and on P2X7 [2] was 10 to 100 nM each time.
As to `O=C(NCC1CCC(F)(F)CC1)c1c(Cl)ccc2nc(C3CCOCC3)ccc12` [Compound 47, 6-Chloro-2-(tetrahydro-pyran-4-yl)-quinoline-5-carboxylic acid (4,4-difluoro-cyclohexyl methyl)-amide], the IC50 on P2X7 [1] fell in the range of 10 to 100 nM; at P2X7 [2] it was 101 to 500 nM.
With `O=C(NCC1(O)CCCC(F)(F)C1)c1c(Cl)ccc2nc(N3CC(F)(F)C3)ccc12` (centres unmarked) [Compound 75, 6-Chloro-2-(3,3-difluoroazetidin-1-yl)-quinoline-5-carboxylic acid (3,3-difluoro-1-hydroxycyclohexylmethyl)-amide], the IC50 on P2X7 [1] and on P2X7 [2] was 101 to 500 nM in each case.
For `O=C(NCC1(O)CCCCCC1)c1c(Cl)ccc2nc(N3CCCC3)ccc12` [Compound 25], the IC50 at P2X7 [1] and at P2X7 [2] was 10 to 100 nM in each case.
Regarding `O=C(NCC1CCC(F)(F)CC1)c1c(Cl)ccc2nc(N3CC[C@@H](O)C3)ccc12` [Compound 61], the IC50 on P2X7 [1] was 10 to 100 nM; at P2X7 [2], 101 to 500 nM.
Regarding `O=C(NCC1CCC(F)(F)CC1)c1c(Cl)ccc2nc(NCCCO)ccc12` [Compound 60, 6-Chloro-2-(3-hydroxy-propylamino)-quinoline-5-carboxylic acid (4,4-difluoro-cyclo hexyl methyl)-amide], the IC50 on P2X7 [1] lay in the range of 10 to 100 nM; on P2X7 [2] it was 101 to 500 nM.
On the same counts, the results for `CN(C)[C@H]1CCN(c2ccc3c(C(=O)NCC4(O)CCC(F)(F)CC4)c(Cl)ccc3n2)C1` [Compound 20, 6-Chloro-2-((S)-3-dimethylamino-pyrrolidin-1-yl)-quinoline-5-carboxylic acid (4,4-difluoro-1-hydroxy-cyclohexylmethyl)-amide] are 10 to 100 nM and 10 to 100 nM.
Taken in the same sequence, the figures for `O=C(NCC1CCC(F)(F)CC1)c1c(Cl)ccc2nc(N3CC(F)(F)C3)ccc12` [Compound 74, 6-Chloro-2-(3,3-difluoro-azetidin-1-yl)-quinoline-5-carboxylic acid (4,4-difluoro-cyclohexylmethyl)-amide] were 101 to 500 nM and 101 to 500 nM.
Take `O=C(NCC1CCC(F)(F)CC1)c1c(Cl)ccc2nc(N3CCC(N4CCCC4)C3)ccc12` (centres unmarked) [Compound 30, 6-Chloro-2-(3-pyrrolidinyl-pyrrolidin-1-yl)-quinoline-5-carboxylic acid (4,4-difluoro-cyclohexylmethyl)-amide]: the IC50 on P2X7 [1] and on P2X7 [2] was 10 to 100 nM throughout.
`O=C(NCC1CCCC(F)(F)C1)c1c(Cl)ccc2nc(N3CCC(F)C3)ccc12` (centres unmarked) [Compound 39, 6-Chloro-2-(3-fluoropyrrolidin-1-yl)-quinoline-5-carboxylic acid (3,3-difluoro-cyclohexylmethyl)-amide]: the IC50 at P2X7 [1] and at P2X7 [2] was 10 to 100 nM in each case.
With `O=C(NC[C@@]1(O)CCCC(F)(F)C1)c1c(Cl)ccc2nc(N3CCC(F)(F)C3)ccc12` [Compound 24, 6-Chloro-2-(3,3-difluoropyrrolidin-1-yl)-quinoline-5-carboxylic acid ((R)-3,3-difluoro-1-hydroxycyclohexylmethyl)-amide], the IC50 on P2X7 [1] and at P2X7 [2] was 10 to 100 nM each time.
As to `CC(C)(C)OC(=O)N1CC=C(c2ccc3c(C(=O)NCC4CCC(F)(F)CC4)c(Cl)ccc3n2)CC1` [Compound 51, 4-{6-Chloro-5-[(4,4-difluoro-cyclohexylmethyl)-carbamoyl]-quinolin-2-yl}-3,6-dihydro-2H-pyridine-1-carboxylic acid tert-butyl ester], the results for the IC50 on P2X7 [1] and at P2X7 [2] were 10 to 100 nM and 101 to 500 nM, respectively.
On the same counts, the results for `C[C@@H]1CCC[C@](O)(CNC(=O)c2c(Cl)ccc3nc(N4CCC(F)(F)C4)ccc23)C1` [Compound 10, 6-Chloro-2-(3,3-difluoropyrrolidin-1-yl)-quinoline-5-carboxylic acid ((1R,3R)-1-hydroxy-3-methyl-cyclohexylmethyl)-amide] are less than 10 nM and 10 to 100 nM.
As for `CN(CCO)c1ccc2c(C(=O)NCC3CCC(F)(F)CC3)c(Cl)ccc2n1` [Compound 73], the results for the IC50 at P2X7 [1] and on P2X7 [2] were 10 to 100 nM and 101 to 500 nM, respectively.
On the same counts, the results for `O=C(NCC1CCC(F)(F)CC1)c1c(Cl)ccc2nc(N3CCCC3)ccc12` [Compound 50] are 10 to 100 nM and 101 to 500 nM.
As for `COCCNc1ccc2c(C(=O)NCC3CCC(F)(F)CC3)c(Cl)ccc2n1` [Compound 68, 6-Chloro-2-(2-methoxy-ethylamino)-quinoline-5-carboxylic acid (4,4-difluoro-cyclohexyl methyl)-amide], the values for the IC50 at P2X7 [1] and on P2X7 [2] were 10 to 100 nM and 500 to 999 nM, respectively.
